Data taken from patent US6770287B1, “Biocidal cellulosic material” (The Regents of the University of California, priority 2000, dated 2004).

Tested on: E. coli
Experiment: AATCC Test Method 100 quantitative antibacterial test (bacterial reduction)
Type: cell-based, Escherichia coli (ATCC 2666)
Conditions: contact time 60 min
Excerpt: AATCC Test Method 100 was adopted in this study. According to this test method, four pieces of staked circular fabric swatches 4.8±0.1 (about one grams) were inoculated with 1.0±0.1 milliliter of inoculum in a 250 milliliter jar. The inoculum was a nutrient broth culture containing over 1.0×10^6 clone forming units (CFU) of organisms. After the swatches were inoculated, they were neutralized by 100 milliliter of a 0.02% sodium thiosulfate solution in the jar. The contact time was the time between inoculation and neutralization. The jar was vigorously shaken and the neutralized solution was diluted in serial. The dilutions, usually 100, 101, and 102, were plated on nutrient agar and incubated for 18-24 hours at 37° C. The number of bacteria recovered from the inoculated finished fabrics was counted and compared with that from untreated fabrics. Six log reduction means the total inactivation of bacteria, and one log reduction means that finished fabrics reduced bacteria counts from 106 CFU to 105 CFU.
Finished fabrics prepared from solutions containing 1%-6% of monomethylol-5,5-dimethylhydantoin following the protocol set forth in Example 1 with pickup rates below 1% have been tested.
Fabrics finished in accordance with the protocol set forth in Example II with Anti-2, i.e., 1,3-dimethylol-5,5-dimethylhydantoin, were also tested with AATCC test method 100, which was briefly described in Example IV. In the tests, a diluted CLOROX® solution containing 0.01 % active chlorine was used to chlorinate the finished fabrics.

CC1(C)C(=O)N(CO)C(=O)N1CO [Anti-2, 1,3-dimethylol-5,5-dimethylhydantoin]
6 log: Durable Antibacterial Properties After fifteen washes E. coli (Anti-2 2%, #400) | Durable Antibacterial Properties After five washes E. coli (Anti-2 2%, #400) | Durable Antibacterial Properties After ten washes E. coli (Anti-2 2%, #400) | Durable Antibacterial Properties After twenty washes E. coli (Anti-2 2%, #400) | Durable Antibacterial Properties After twenty washes E. coli (Anti-2 2%, #400, last column pair) | Durable Antibacterial Properties After fifteen washes E. coli (Anti-2 2%, #7409) | Durable Antibacterial Properties After five washes E. coli (Anti-2 2%, #7409) | Durable Antibacterial Properties After ten washes E. coli (Anti-2 2%, #7409) | Durable Antibacterial Properties After twenty washes E. coli (Anti-2 2%, #7409) | Durable Antibacterial Properties After twenty washes E. coli (Anti-2 2%, #7409, last column pair) | Durable Antibacterial Properties After fifteen washes E. coli (Anti-2 6%, #400) | Durable Antibacterial Properties After five washes E. coli (Anti-2 6%, #400) | Durable Antibacterial Properties After ten washes E. coli (Anti-2 6%, #400) | Durable Antibacterial Properties After twenty washes E. coli (Anti-2 6%, #400) | Durable Antibacterial Properties After twenty washes E. coli (Anti-2 6%, #400, last column pair) | Durable Antibacterial Properties After fifteen washes E. coli (Anti-2 6%, #7409) | Durable Antibacterial Properties After five washes E. coli (Anti-2 6%, #7409) | Durable Antibacterial Properties After ten washes E. coli (Anti-2 6%, #7409) | Durable Antibacterial Properties After twenty washes E. coli (Anti-2 6%, #7409) | Durable Antibacterial Properties After twenty washes E. coli (Anti-2 6%, #7409, last column pair) | Durable Antibacterial Properties After fifteen washes E. coli (Anti-2 10%, #400) | Durable Antibacterial Properties After five washes E. coli (Anti-2 10%, #400) | Durable Antibacterial Properties After ten washes E. coli (Anti-2 10%, #400) | Durable Antibacterial Properties After twenty washes E. coli (Anti-2 10%, #400) | Durable Antibacterial Properties After twenty washes E. coli (Anti-2 10%, #400, last column pair) | Durable Antibacterial Properties After fifteen washes E. coli (Anti-2 10%, #7409) | Durable Antibacterial Properties After five washes E. coli (Anti-2 10%, #7409) | Durable Antibacterial Properties After ten washes E. coli (Anti-2 10%, #7409) | Durable Antibacterial Properties After twenty washes E. coli (Anti-2 10%, #7409) | Durable Antibacterial Properties After twenty washes E. coli (Anti-2 10%, #7409, last column pair)
